Reference: patent US4430263A, “Hapten-inhibitor immunoassay” (Abbott Laboratories, priority 1980, dated 1984)

Tested on: sheep T4 antibody (gamma globulin / IgG fraction from sheep antiserum)
Experiment: Binding constant of T4 antibody binding sites (footnote to Table I, antibody modulation of STI-T4)
Conditions: approximately 7.4 × 10^-8 M antibody binding sites; gamma globulin chromatographically isolated from sheep T4 antibody
Method: A working solution of 2.0 mg/ml gamma globulin (chromatographically isolated from sheep T4 antibody) is prepared in 0.1 M HEPES (N-2-hydroxyethylpiperazine-N'-2-ethanesulfonic acid) buffer, pH 8.0, containing 0.1% gelatin. A stock solution of the STI-T4 (soybean trypsin inhibitor-thyroxine) conjugate (8×10^-7 M) is also prepared in HEPES-gelatin buffer, pH 8.0. A trypsin stock solution is made at 1×10^-7 M in dilute HCl, pH 3.0, and stored at 4° C. The trypsin working reagent is diluted to a concentration of 8.2×10^-8 M with HCl gelatin, pH 3.0. Equal volumes (50 μl) of the thyroxine STI conjugate and antibody are mixed and incubated at room temperature for 5 minutes. Trypsin is then added to the mixture, incubated for 30 seconds, and a 25 μl portion of the assay mixture diluted into a cuvette with 250 μl of substrate (0.5 mM benzoylphenylalanylvalyl arginine p-nitroaniline in 0.05 M Tris pH 8.1 with 0.01 M CaCl2). The change in absorbance with time (t=5.5 minutes less t=0.5 minutes) is recorded using a Bichromatic Analyzer equipped with a 380/450 mμ filter. The following table gives the results for a suitable conjugate prepared in Example I.
A working solution of 1 mg/ml anti-T4 IgG (from sheep antiserum) is prepared in barbital buffer with gelatin. The approximate concentration of binding sites from […] analysis is 1.2×10^-7 M.

For `N[C@@H](Cc1cc(I)c(Oc2cc(I)c(O)c(I)c2)c(I)c1)C(=O)O` [thyroxine], the “K (antibody binding sites)” value was ~1.3 × 10^9.
